“Also recorded” adds a separate entry of the source.

This note sets out measurements from patent publication US20260139017A1, “COMPOSITIONS AND METHODS USING REELIN IN ALZHEIMER'S DISEASE” (The General Hospital Corporation, priority 2022, published 2026).

A short description of experiment [1]: Heparin HPLC, peak retention time in KCl elution. It is filed as binding. Particulars: isocratic 1M KCl elution, long and short peptides. Here is the method:
[…] 50 μl of 0.3 μg/μL uncleaved or cleaved WT Reelin peptide was used at 0.3 ml/min in 0.15MKCl, 10 mM PBS. 0-13.5 min: 0.15M KCl to load sample, 13.5-14.5 min: ramp to 0.5M KCl, 14.5-24.5 min: 0.5-1M KCl gradient (ramp), 24.5-45 min: 1M KCl (isocratic elution), 45-55 min: 1M KCl at 0.6 ml/min (wash), 55.0-56.0 min: ramp to 0.15M KCl at 0.3 ml/min, 56.0-59.0 min: 0.15M KCl (reset column). Fluorescence Intensities were measured at an excitation wavelength of 260 nm and emission wavelength of 290 nm, based on fluorescence properties of aromatic amino acids. To assess fluorescence properties of peptides, 15 ul of ˜0.6 ug/mL of peptide was diluted in 500 μL of 0.15MKCl, 10 mM PBS, and peak excitation and emission of peptides was calculated from the 2D graphical data.
The column chromatography method was adapted from previous research from the laboratory (2). Based on the column chromatography data, the initial protocol used a NaCl gradient from 0-1 M and a 5M salt wash to reset the HPLC column. However, the high salt gradient was corrosive to the HPLC machine parts. Therefore, KCl was considered because the […]. A lower molar concentration of a buffer with KCl could be used to disrupt heparin—Reelin CTR interactions compared to NaCl to help keep the HPLC pumps free of residual salts and potential corrosion. Since a lower concentration of salt was used, the amount of time needed at an […] hold of 1M KCl was extended until the peptide signal could not be detected before the column was equilibrated for the next sample.

For the next experiment, the target named is T1, VLDLr (Homo sapiens, UniProt P98155).
T1 construct: purchased R&D 8444-VL
Put plainly: ELISA cell-free binding of RELN variants to VLDLr. Here is the method:
Enzyme-linked immunosorbent assay (ELISA) was used to quantify changes in binding of RELN variants (media-derived full-length or CTR-RELN) to either VLDLr or ApoEr2 following an optimized version of a previously published protocol (6). Briefly, ELISA strips (DY008, R&D Systems) were coated with one ng/μL (100 μL/well) of VLDLr (8444-VL, R&D) or ApoEr2 (TP320903, OnGene) receptors diluted in 25 mM Tris HCl, 140 mM NaCl, […], two mM CaCl2), pH 7.4 (TBS-C buffer). After 18 h at four ° C. incubation, plates were blocked one h with three % BSA (22070008-6, Bioworld), 0.05% Tween-20 (Sigma Aldrich) TBS-C buffer. We assessed binding via incubation with 100 μL/well of serial dilutions of recombinant RELN protein (Ser1221-Gln2666, 8546-MR-050, R&D) or RELN variants in TBS-C buffer for one hour at room temperature. For detection, we used goat anti-mouse RELN primary antibody (LS-C793521-100, LS-Bio, 1:2,000, 100 μL/well) as primary antibody for one h at R.T. and (1:10,000; 100 μL/well, donkey anti-goat IgG H&L, HRP, ab6885, Abcam) as secondary antibody for 30 min. at R.T. Between each of the previous steps, plates were washed four times with TBS-C buffer (200 μL/well). Plates were washed three times prior to initiating the colorimetric reaction (DY008, R&D Systems). Stop solution (50 μL/well, DY008, R&D Systems) was added upon five min. incubation and the absorbance of the samples was measured at 450 nm using the Synergy 2 microplate reader (BioTek Instruments). Processing and analysis of the data was done using Gen5 1.11 software and GraphPad Prism, respectively.

The nature of experiment [2]: Heparin-sepharose affinity column chromatography, NaCl step gradient. It is filed as binding. Here is the method: We tested changes in binding to heparin of RELN variants chromatographically using an optimized version of a protocol previously published by our laboratory (1). Briefly, after equilibration of the heparin column (BioVision 6554-1) at R.T., columns were washed with five volumes of degassed 20 mM TRIS-HCl buffer (pH 7.5). Recombinant C-terminus RELN peptides were produced and purified by Innovagen (Sweden): (WT) […](SEQ ID NO:56), and (H3447R) […](SEQ ID NO:53). One mL of 50 μg/mL peptide (H3447 or WT, and H3447R) was recycled through the column five times and the last flow through collected for further analysis. The column was washed five times with the same buffer and the protein eluted using a 0.05 M step gradient of NaCl in 20 mM Tris-HCl (0-1M, one mL per fraction). To ensure the complete release of the protein, the column was washed with five M NaCl 20 mM Tris-HCl. Three independent experiments were conducted for C-terminus RELN WT and H3447R. All eluted fractions were analyzed spectroscopically by reading the absorbance at 280 nm using Nanodrop 2000 Spectrophotometer. Blank corrected fractions were subsequently analyzed using GraphPad Prism 8.
To assess Reelin-heparin binding affinity, Reelin variants were run on a heparin column with steps of 0.05M in a range of 0.05-1M NaCl over 20 1 mL column volumes in 20 mM Tris HCl, as described in Arboleda et. al 2019 (2). Sample fractions were eluted at an increasing NaCl step size to determine the ionic strength needed to disrupt the binding between Reelin and heparin. Therefore, the stronger the interaction, the higher concentration of salt would be needed to disrupt the bond.

On to “RKQNYMMNFSRQHGLRRFYNRRRRSLRRYP [CTR-RELN H3447R]”, for which the “peak retention time on heparin HPLC” value is recorded as “increased later peak retention times” in experiment [1] (listed as H3447R), “significantly later peak retention time” in experiment [1] (listed as H3447R Reelin) and “delayed peak times” in experiment [1] (listed as RELN H3447R). In addition, the “binding to VLDLr” value at VLDLr was “unable to bind directly”. Further, the “NaCl concentration of peak eluted fraction from heparin column” value in experiment [2] (0.05 M NaCl step gradient in 20 mM Tris HCl, UV 280 nm) amounted to 0.7 M NaCl. The “binding to and release from heparin column” value in experiment [2] (affinity chromatography, NaCl gradient) is “bound to heparin; also recorded: required higher NaCl salt concentrations to be released”.
